From patent US20240101563A1, “NOVEL COMPOUNDS” (AC Immune SA, priority 2022, published 2024)

Experiments:
[1] = tested on: IL-1β; assay: Inhibition of IL-1β in an LPS/ATP induced acute peritonitis mouse model; format: in vivo; details: BALB/c mice; dosed 30 min before LPS i.p.; ATP i.p. 120 min after LPS; PW 30 min post ATP; vs LPS-ATP, 0 mg/kg
Experimental: 1.2.1 The efficacy of Example compounds 53 and 18 in an LPS/ATP-induced acute peritonitis was evaluated: LPS (Lipopolysaccharide) and ATP (Adenosine triphosphate) were administered to BALB/c mice by intraperitoneal (i.p.) injection to elicit an acute inflammatory response in the peritoneal cavity.
Mice (BALB/c mice, aged 6-8 w, females) were challenged with 50 μg/kg LPS by intraperitoneal (i.p.) injection. 120 min after LPS administration, ATP was delivered by i.p. injection at 50 mM in 200 μL. […]
Cytometric Bead Array (CBA) Assay for IL-1β detection was performed on the peritoneal wash supernatant as follows: supernatants or cytokine standards were incubated with the capture beads mixture for 1 hour at room temperature. […] After washing in Wash Buffer containing 1×PBS, blocking protein, and detergent, the beads were re-suspended and analyzed by flow cytometry.
The cytokine analysis raw data were analyzed using FACP. […] Data were expressed as the Mean±SD. […]

[2] = tested on: NLRP3 inflammasome pathway; assay: NLRP3 inflammasome pathway activation assay, Nigericin stimulation, IL-1β HTRF; format: cell-based; details: Homo sapiens, 3 h, Table 7; PMA-differentiated, LPS-primed cells; Nigericin 3.75 μM for 3 h; IL-1β release; read-out: IC50 Human monocyte-like cells Nigericin
Experimental: The following assays were used to determine the inhibitory activity of test compounds on the NLRP3 inflammasome pathway using common stimuli Nigericin (Invivogen) or monosodium urate crystals (MSU) (Invivogen).
Human monocyte-like cells were cultured in RPMI-1640 Glutamax medium supplemented with 10% heat inactivated FBS (Fetal Bovine Serum) and 50 U/mL penicillin-streptomycin (Life Technologies).
Human monocyte-like cells were seeded at 25000 per well in a 384-well plate and were differentiated overnight into macrophages with 10 ng/mL PMA (Phorbol Myristate Acetate). The following day, medium containing 10 ng/mL LPS (Lipopolysaccharide) was added. After 3 hours of LPS priming, concentrations of test compound in the range from […] were added 30 min prior to NLRP3 inflammasome pathway stimulation with Nigericin 3.75 μM or MSU 200 μg/mL for 3 h.
For IL-1p quantification, supernatants were analyzed using HTRF kit according to the manufacturer's instructions (Cisbio 62HIL1BPEH). Briefly, in a 384-well ProxiPlate™ microplate, 8 μl of sample was mixed, with 5 μl of Anti-IL1β Cryptate antibody (40×) and Anti-IL1β XL antibody (40×). Then, incubated overnight at RT. Reading was done using an EnVision Reader (PerkinElmer).
IC50 (concentration corresponding to 50% inhibition) were determined using GraphPad Prism 9.

[3] = tested on: NLRP3 inflammasome pathway; assay: NLRP3 inflammasome pathway activation assay, MSU stimulation, IL-1β HTRF; format: cell-based; details: Homo sapiens, 3 h, MSU 200 μg/mL for 3 h, IL-1β release, read-out: IC50 Human monocyte-like cells MSU
Summary of the method: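 Human monocyte-like cells differentiated overnight with 10 ng/mL PMA, primed 3 h with 10 ng/mL LPS, given compound ([…]) 30 min before 3 h stimulation with Nigericin 3.75 μM or MSU 200 μg/mL. Supernatant IL-1β quantified by HTRF; IC50 at 50% inhibition.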

[4] = Table 7, PMA-differentiated, LPS-primed cells
[5] = Table 8 (formula II′/II vs formula III)

Row | IC50 [3, 5] [nM] | Compound | IL-1β release in peritoneal wash (PW) [1] | IC50 [2] [nM] | IC50 [3, 4] [nM]
1 |  | Cc1cc(C(F)(F)F)cc(O)c1-c1nc2nc(NC3CCN(C)C3)ccc2n1C (racemic) [Example 18, 3-methyl-2-(1-methyl-5-((1-methylpyrrolidin-3-yl)amino)-1H-imidazo[4,5-b]pyridin-2-yl)-5-(trifluoromethyl)phenol] | significantly reduced IL-1p release in PW in a dose response manner |  | 
2 |  | CCn1c(-c2ccc(C(F)(F)F)cc2O)nc2nc(NC3CCN(C)C3)ccc21 (single isomer, unassigned) [Example 9, 2-(1-ethyl-5-((1-methylpyrrolidin-3-yl)amino)-1H-imidazo[4,5-b]pyridin-2-yl)-5-(trifluoromethyl)phenol] |  | 100 to 1000 | < 100
3 |  | Cc1cc(C(F)(F)F)cc(O)c1-c1nc2nc(N[C@H]3CCCC[C@@H]3O)ccc2n1C (single isomer, unassigned) [Example 20, 2-(5-((2-hydroxycyclohexyl)amino)-1-methyl-1H-imidazo[4,5-b]pyridin-2-yl)-3-methyl-5-(trifluoromethyl)phenol] |  | > 1000 | 100 to 1000
4 |  | Cc1cc(C(F)(F)F)cc(O)c1-c1nc2nc(OC3CCN(C)C3)cnc2n1C (single isomer, unassigned) [Example 53, 3-methyl-2-(1-methyl-5-((1-methylpyrrolidin-3-yl)oxy)-1H-imidazo[4,5-b]pyrazin-2-yl)-5-(trifluoromethyl)phenol] | significantly reduced IL-1β release in PW in a dose response manner |  | < 100
5 |  | COc1ccc2c(n1)nc(-c1c(C)cc(C(F)(F)F)cc1O)n2C [Example 23] |  | 100 to 1000 | < 100
6 |  | COc1ccc2c(n1)nc(-c1ccc(C(F)(F)F)cc1O)n2C [Example 24, 2-(5-methoxy-1-methyl-1H-imidazo[4,5-b]pyridin-2-yl)-5-(trifluoromethyl)phenol] |  | < 100 | 100 to 1000
7 |  | CN1CCC[C@@H](Oc2ccc3c(n2)nc(-c2ccc(C(F)(F)F)cc2O)n3C)C1 [Example 25, (R)-2-(1-methyl-5-((1-methylpiperidin-3-yl)oxy)-1H-imidazo[4,5-b]pyridin-2-yl)-5-(trifluoromethyl)phenol] |  | 100 to 1000 | < 100
8 |  | Cc1cc(C(F)(F)F)cc(O)c1-c1nc2nc(O[C@@H]3CCCN(C)C3)ccc2n1C [Example 26, (R)-3-methyl-2-(1-methyl-5-((1-methylpiperidin-3-yl)oxy)-1H-imidazo[4,5-b]pyridin-2-yl)-5-(trifluoromethyl)phenol] |  | 100 to 1000 | < 100
9 |  | COc1ccc2c(n1)nc(-c1c(C)cc(Cl)cc1O)n2C [Example 29, 5-chloro-2-(5-methoxy-1-methyl-1H-imidazo[4,5-b]pyridin-2-yl)-3-methylphenol] |  | 100 to 1000 | < 100
10 |  | CCn1c(-c2c(C)cc(C(F)(F)F)cc2O)nc2nc(OCCO)ccc21 [Example 32, 2-(1-ethyl-5-(2-hydroxyethoxy)-1H-imidazo[4,5-b]pyridin-2-yl)-3-methyl-5-(trifluoromethyl)phenol] |  | 100 to 1000 | < 100
11 |  | Cc1cc(Cl)cc(O)c1-c1nc2nc(N3CCC(C)(O)CC3)cnc2n1C [Example 80, 1-[2-(4-chloro-2-hydroxy-6-methyl-phenyl)-1-methyl-imidazo[4,5-b]pyrazin-5-yl]-4-methyl-piperidin-4-ol] |  |  | < 100
12 |  | Cc1cc(Cl)cc(O)c1-c1nc2nc(N(C)[C@@H]3CCN(C)C3)cnc2n1C [Example 81, 5-chloro-3-methyl-2-[1-methyl-5-[methyl-[(3R)-1-methylpyrrolidin-3-yl]amino]imidazo-[4,5-b]pyrazin-2-yl]phenol] |  |  | < 100
13 | > 1500 | Cn1c(NCCO)nc2nc(-c3ccc(C(F)(F)F)cc3O)ccc21 [Example 82, 2-(2-((2-hydroxyethyl)amino)-1-methyl-1H-imidazo[4,5-b]pyridin-5-yl)-5-(trifluoro-methyl)phenol] |  |  | 
14 | > 1500 | CN1CCC[C@@H](Nc2nc3nc(-c4ccc(C(F)(F)F)cc4O)ccc3n2C)C1 [Example 83, (R)-2-(1-methyl-2-((1-methylpiperidin-3-yl)amino)-1H-imidazo[4,5-b]pyridin-5-yl)-5-(trifluoromethyl)phenol] |  |  | 
15 |  | Cc1cc(C(F)(F)F)cc(O)c1-c1nc2nc(N3CC(C)(O)C3)cnc2n1C [Example 84, 1-(2-(2-hydroxy-6-methyl-4-(trifluoromethyl)phenyl)-1-methyl-1H-imidazo[4,5-b]pyrazin-5-yl)-3-methylazetidin-3-ol] |  |  | 100 to 1000
16 |  | CN1CC[C@@H](Oc2cnc3c(n2)nc(-c2c(O)cc(Cl)cc2F)n3C)C1 [Example 87, 5-chloro-3-fluoro-2-[1-methyl-5-[(3R)-1-methylpyrrolidin-3-yl]oxy-imidazo[4,5-b]pyrazin-2-yl]phenol] |  |  | < 100
17 |  | Cc1cc(Cl)cc(O)c1-c1nc2nc(C(F)(F)F)ccc2n1C [Examples 50] |  |  | 100 to 1000
